Tests used:
[1] = system: AGE formation during uninterrupted glycation of ribonuclease A (RNase A) by ribose; assay: Uninterrupted ribose glycation assay, RNase; type: biochemical, bovine; conditions: continuous 0.05 M ribose, 6 weeks, inhibitors 0.5-50 mM
Protocol: (§1) ELISA detection of AGE products. The general method of Engvall (1981, Methods Enzymol. 70:419-439) was used to perform the ELISA. Typically, glycated protein samples were diluted to approximately 1.5 ug/ml in 0.1 M sodium carbonate buffer of pH 9.5 to 9.7. The protein was coated overnight at room temperature onto 96-well polystyrene plates by pippetting 200 ul of the protein solution in each well (0.3 ug/well). After coating, the protein was washed from the wells with a saline solution containing 0.05% Tween-20. The wells were then blocked with 200 ul of 1% casein in carbonate buffer for 2 h at 37° C. followed by washing. Rabbit anti-AGE antibodies were diluted at a titer of about 1:350 in incubation buffer, and incubated for 1 h at 37° C., followed by washing. In order to minimize background readings, antibodies R479 used to detect glycated RNase were raised against glycated BSA, and antibodies R618 used to detect glycated BSA and glycated Hb were raised against glycated RNase. An alkaline phosphatase-conjugated antibody to rabbit IgG was then added as the secondary antibody at a titer of 1:2000 or 1:2500 (depending on lot) and incubated for 1 h at 37° C., followed by washing. The p-nitrophenylphosphate substrate solution was then added (200 ul/well) to the plates, with the absorbance of the released p-nitrophenolate being monitored at 410 nm with a Dynatech MR 4000 microplate reader.
(§2) Uninterrupted ribose glycation assays Bovine serum albumin, ribonuclease A, and human hemoglobin were incubated with ribose at 37° C. in 0.4 M sodium phosphate buffer of pH 7.5 containing 0.02% sodium azide. The protein (10 mg/ml or 1 mg/ml), 0.05 M ribose, and prospective inhibitors (at 0.5, 3, 15 and 50 mM) were introduced into the incubation mixture simultaneously. Solutions were kept in the dark in capped tubes. Aliquots were taken and immediately frozen until analyzed by ELISA at the conclusion of the reaction. The incubations were for 3 weeks (Hb) or 6 weeks (RNase, BSA). Glycation reactions were monitored for constant pH throughout the duration of the experiments.
The inhibitory effects of vitamin B1 and B6 derivatives on the kinetics of antigenic AGE formation were evaluated by polyclonal antibodies specific for AGEs. Initial inhibition studies were carried out on the glycation of bovine ribonuclease A (RNase) in the continuous presence of 0.05 M ribose, which is the concentration of ribose where the rate of AGE formation is near maximal.

[2] = system: post-Amadori AGE formation, RNase Amadori intermediate; assay: Interrupted (post-Amadori) ribose glycation assay, RNase; type: biochemical, bovine; conditions: RNase, 24 h in 0.5 M ribose, then free ribose removed, 37° C.
Protocol: as §1
Glycation Modifications Modification with ribose or glucose was generally done at 37° C. in 0.4 M phosphate buffer of pH 7.5 containing 0.02% sodium azide. The high buffer concentration was always used with 0.5 M ribose modifications. The solutions were kept in capped tubes and opened only to remove timed aliquots that were immediately frozen for later carrying out the various analyses. “Interrupted glycation” experiments were carried out by first incubating protein with the ribose at 37° C. for 8 or 24 h, followed by immediate and extensive dialysis against frequent cold buffer changes at 4° C. The samples were then reincubated by quickly warming to 37° C. in the absence of external ribose. Aliquots were taken and frozen at various intervals for later analysis. Due to the low molecular weight of RNase, protein concentrations were remeasured after dialysis even when low molecular weight cut-off dialysis tubing was used. An alternative procedure was also devised (see below) in which interruption was achieved by simple 100-fold dilution from reaction mixtures containing 0.5 M ribose. Protein concentrations were estimated from UV spectra. The difference in molar extinction between the peak (278 nm) and trough (250 nm) was used for RNase concentration determinations in order to compensate for the general increase in UV absorbance that accompanies glycation. Time-dependent UV-difference spectral studies were carried out to characterize the glycation contributions of the UV spectrum. […]
Glycation was first carried out by incubating protein (10 mg/ml) with 0.5 M ribose at 37° C. in 0.4 M phosphate buffer at pH 7.5 containing 0.2% sodium azide for 24 h in the absence of inhibitors. Glycation was then interrupted to remove excess and reversibly bound (Schiff base) sugar by extensive dialysis against frequent cold buffer changes at 4° C.

[3] = system: AGE formation during uninterrupted glycation of bovine serum albumin (BSA) by ribose; assay: Uninterrupted ribose glycation assay, BSA; type: biochemical; conditions: 0.05 M ribose, 6 weeks, inhibitors 0.5-50 mM
Protocol: as §1, §2

[4] = system: AGE formation in bovine serum albumin (BSA); assay: Uninterrupted glycation of BSA with glucose, anti-AGE ELISA; type: biochemical; conditions: BSA 10 mg/ml, 1.0 M glucose, pH 7.5, 37° C., 6 weeks; inhibitors 3, 15 and 50 mM
Protocol: as §2, with “Glycation with Glucose” for “ribose glycation assays”, “glucose” for “ribose”, “protein, glucose (at 1.0 M),” for “protein (10 mg/ml or 1 mg/ml), 0.05 M ribose,”, “BSA).” for “BSA). Glycation reactions were monitored for constant pH throughout the duration of the experiments.”
as §1
FIGS. 1 A-D are graphs which show the effect of vitamin B6 derivatives on post-Amadori AGE formation in bovine serum albumin glycated with glucose. BSA (10 mg/ml) was incubated with 1.0 M glucose in the presence and absence of the various indicated derivative in 0.4 M sodium phosphate buffer of pH 7.5 at 37° C. for 6 weeks. Aliquots were assayed by ELISA using R618 anti-AGE antibodies. Concentrations of the inhibitors were 3, 15 and 50 mM. Inhibitors used in FIGS. (1A) Pyridoxamine (PM); (1B) pyridoxal phosphate (PLP); (1C) pyridoxal (PL); (1D) pyridoxine (PN).
FIGS. 2A-D are graphs which show the effect of vitamin B1 derivatives and aminoguanidine (AG) on AGE formation in bovine serum albumin. BSA (10 mg/ml) was incubated with 1.0 M glucose in the presence and absence of the various indicated derivative in 0.4 M sodium phosphate buffer of pH 7.5 at 37° C. for 6 weeks. Aliquots were assayed by ELISA using R618 anti-AGE antibodies. Concentrations of the inhibitors were 3, 15 and 50 mM. Inhibitors used in FIGS. (2A) Thiamine pyrophosphate (TPP); (2B) thiamine monophosphate (TP); (2C) thiamine (T); (2D) aminoguanidine (AG).

[5] = system: post-Amadori AGE formation, BSA Amadori intermediate; assay: Interrupted (post-Amadori) ribose glycation assay, BSA; type: biochemical, bovine; conditions: 24 h in 0.5 M ribose, then free ribose removed, 37° C.
Protocol: as §1
Glycation was first carried out by incubating protein (10 mg/ml) with 0.5 M ribose at 37° C. in 0.4 M phosphate buffer at pH 7.5 containing 0.2% sodium azide for 24 h in the absence of inhibitors. Glycation was then interrupted to remove excess and reversibly bound (Schiff base) sugar by extensive dialysis against frequent cold buffer changes at 4° C. The glycated intermediate samples containing maximal amount of Amadori product and little AGE (depending on protein) were then quickly warmed to 37° C. without re-addition of ribose. This initiated conversion of Amadori intermediates to AGE products in the absence or presence of various concentrations (typically 3, 15 and 50 mM) of prospective inhibitors. Aliquots were taken and frozen at various intervals for later analysis. The solutions were kept in capped tubes and opened only to remove timed aliquots that were immediately frozen for later carrying out the various analyses.

rats = assay: Ribose administration to rats (Phase I and II), renal physiology; type: in vivo, rat
Protocol: Two groups of six rats each were given in one day either:
a. 300 mM ribose (two intraperitoneal infusions 6-8 hours apart, each 5% of body weight as ml); or
b. 50 mM ribose (one infusion)
Rats were then kept for 4 days with no further ribose administration, at which time they were sacrificed and the following physiological measurements were determined: (i) initial and final body weight; (ii) final stage kidney weight; (iii) initial and final tail-cuff blood pressure; (iv) creatinine clearance per 100 g body weight.
Groups of rats (3-6) were intraperitoneally given 0.3 M “low ribose dose” (LR) or 1.0 M “high ribose dose” (HR) by twice-daily injections for either (i) 1 day, (ii) a “short-term” (S) of 4 days, or (iii) a “long-term” (L) of 8 days. Additionally, these concentrations of ribose were included in drinking water.

ribose-treated rats = assay: Ribose rat model, intervention by compounds (Phase III); type: in vivo; conditions: 1 M ribose alone, 8 days
Protocol: Sixty rats were randomized into 9 different groups, including those exposed to 1 M ribose for 8 days in the presence and absence of aminoguanidine, pyridoxamine, and thiamine pyrophosphate as follows:
(ii) high dose (250 mg/kg body weight) of pyridoxamine (“compound-P”);
(iii) high dose (250 mg/kg body weight of thiamine pyrophosphate (“compound-T” or “TPP”); and
(iv) low dose (25 mg/kg body weight) of aminoguanidine (“AG”).
(i) only 1 M ribose-saline (2×9 cc daily IP for 8 days);
(ii) ribose plus low dose (“LP”) of pyridoxamine (25 mg/kg body weight injected as 0.5 ml with 9 cc ribose);
(iii) ribose plus high dose (“HP”) of pyridoxamine (250 mg/kg body weight injected as 0.5 ml with 9 cc ribose);
(iv) ribose plus high dose (“HT”) of thiamine pyrophosphate (250 mg/kg body weight injected as 0.5 ml with 9 cc ribose); and
(v) ribose plus low dose of amino guanidine (25 mg/kg body weight injected as 0.5 ml with 9 cc ribose).
Unlike Phase II, no ribose was administered in drinking water. Intervention compounds were pre-administered for one day prior to introducing them with ribose.

[6] = Phase II: 0.3 M or 1.0 M ribose for 1, 4 or 8 days

SMILES | inhibition of post-Amadori AGE formation [2] | creatinine clearance (rats; high ribose (2×300 mM), normal range expected about 1.0-1.2) | creatinine clearance (rats; low ribose (1×50 mM), normal range expected about 1.0-1.2) | Albumin effusion rate (AER) (ribose-treated rats) | inhibition of overall kinetics of AGE formation from ribose [1] | inhibition of overall kinetics of AGE formation from ribose [3] | inhibition of antigenic AGE formation (ELISA) [4] | inhibition of post-Amadori AGE formation [5] | Albumin effusion rate (AER) (rats; [6]) | creatinine clearance (rats; [6]) | tail-cuff blood pressure (rats; Phase II: 0.3 M or 1.0 M ribose twice daily IP for 1, 4 or 8 days, also in drinking water) | tail-cuff blood pressure (rats; high ribose (2×300 mM) in one day, measured 4 days later, from 66±4) | tail-cuff blood pressure (rats; low ribose (1×50 mM) in one day, measured 4 days later, from 66±4)
Cc1ncc(CO)c(C=O)c1O [pyridoxal] | did not show any significant inhibition at 15 mM |  |  |  | significantly inhibited the rate of AGE formation on RNase at concentrations of 50 mM and 15 mM | mostly inhibited the rate of AGE formation, but not the final levels of AGE formed | effective above 15 mM |  |  |  |  |  | 
Cc1ncc(CO)c(CO)c1O [pyridoxine] |  |  |  |  | moderately inhibited AGE formation on RNase | failed to inhibit AGE formation on BSA | slightly effective at the highest concentrations tested | did not produce any inhibition |  |  |  |  | 
O=C[C@H](O)[C@H](O)[C@H](O)CO [ribose] | diminished by increasing ribose concentrations | 0.62±0.13 cc per 100 g body weight | 0.87±0.15 cc per 100 g body weight | elevated |  |  |  |  | increased significantly in a ribose-dependent manner at 1-day and 4-day exposures | decreased in all groups in a ribose dose-dependent and time-dependent manner | increased in all groups of ribose-treated rats | 106±5 | 83±3
Cc1ncc(C[n+]2csc(CCO)c2C)c(N)n1 [thiamine] | showed no effect |  |  |  | little effect on the rate of AGE formation, but a substantial decrease in the final level of AGE formed in the presence of the highest concentration of inhibitor | inhibited the final levels of AGEs formed, without greatly affecting the rate of AGE formation | not inhibitory | showed no effect |  |  |  |  | 

The next lines start with results.

inhibition of post-Amadori AGE formation [2] | creatinine clearance (rats; high ribose (2×300 mM), normal range expected about 1.0-1.2) | creatinine clearance (rats; low ribose (1×50 mM), normal range expected about 1.0-1.2) | Albumin effusion rate (AER) (ribose-treated rats) | SMILES | inhibition of overall kinetics of AGE formation from ribose [1] | inhibition of overall kinetics of AGE formation from ribose [3] | inhibition of antigenic AGE formation (ELISA) [4] | inhibition of post-Amadori AGE formation [5] | Albumin effusion rate (AER) (rats; [6]) | creatinine clearance (rats; [6]) | tail-cuff blood pressure (rats; Phase II: 0.3 M or 1.0 M ribose twice daily IP for 1, 4 or 8 days, also in drinking water) | tail-cuff blood pressure (rats; high ribose (2×300 mM) in one day, measured 4 days later, from 66±4) | tail-cuff blood pressure (rats; low ribose (1×50 mM) in one day, measured 4 days later, from 66±4)
showed significant inhibition at 15 mM |  |  |  | Cc1ncc(COP(=O)(O)O)c(C=O)c1O [pyridoxal phosphate, pyridoxal-5′-phosphate] | significantly inhibited the rate of AGE formation on RNase at concentrations of 50 mM and 15 mM | mostly inhibited the rate of AGE formation, but not the final levels of AGE formed | strongly suppressed antigenic AGE formation at even the lowest concentrations tested |  |  |  |  |  | 
showed some intermediate effect |  |  |  | Cc1ncc(C[n+]2csc(CCOP(=O)(O)O)c2C)c(N)n1 [thiamine monophosphate] | little effect on the rate of AGE formation, but a substantial decrease in the final level of AGE formed in the presence of the highest concentration of inhibitor |  | not inhibitory | showed some intermediate effect |  |  |  |  | 

— patent publication US6716858B1, “Methods for inhibiting diabetic complications” (Kansas University Medical Center, priority 1995, dated 2004)
